{
  "source": "paper PMC11061730",
  "about": "“Bacterial stigmasterol degradation involving radical flavin delta-24 desaturase and molybdenum-dependent C26 hydroxylase” (The Journal of Biological Chemistry, 2024)",
  "key": {"[1]": {"molecular_target": "T1, Δ24-steroid desaturase (Δ24-SD) (Sterolibacterium denitrificans, UniProt A0A7Z7MWF7+A0A7Z7MWR3)", "T1 construct": "gene SDENCHOL_21263; alpha 63 kDa, beta 57 kDa; covalent FMN on a histidine of each subunit", "assay": "LC-MS/MS of tryptic peptides; acid denaturation", "format": "binding", "details": "covalent; histidyl residue near N terminus in both subunits"}, "[2]": {"substrate": "CC[C@H](/C=C/[C@@H](C)[C@H]1CC[C@H]2[C@@H]3CCC4=CC(=O)C=C[C@]4(C)[C@H]3CC[C@]12C)C(C)C", "assay": "UPLC assay of SDO to STO conversion, Michaelis-Menten fit", "format": "biochemical, Sterolibacterium denitrificans", "details": "1 mM DCPIP as electron acceptor, 50 mM Mops/KOH pH 7.0, 6% (w/v) HPCD, 30 °C, aerobic"}},
  "data": [
    {"molecule": "Cc1cc2nc3c(=O)[nH]c(=O)nc-3n(C[C@H](O)[C@H](O)[C@H](O)COP(=O)(O)O)c2cc1C", "note": "[flavin mononucleotide]", "values": [
      {"measurement": "LC-MS/MS of tryptic peptides; acid denaturation", "setting": "[1]", "result": "contained flavin mononucleotide (FMN) modifications in both subunits"}
    ]},
    {"molecule": "Δ24-steroid desaturase (Δ24-SD) (Sterolibacterium denitrificans) (protein, alpha 63 kDa, beta 57 kDa; covalent FMN on a histidine of each subunit) chain 1: MKNYDVIIIGGGINGLTTACYLQKAGLSVGVFEARGQCGAHCDTIELGRPGFLFNTHATWLVPAMSPPMADLELEKFNLELLGTDVIFAMPHADGTNTVQALDPGITMASIARHSEKDAALLGRIMEFGMMHMQEALEINGQMQYSRPTMALAERIAKLNDGLCKHLGLPIDGDDVMRMTGFELLELVYESEKVRLVPGTLGEYTGQWPLNRRVAPTVLGLCGMNPMAVHTAKGGSHALNHALVRCFVKHGGEIWTTCPVSKIIVENGRAVGIKLSEDALMPGEEIRAKNIVSNLTLTPTFTKLLGEEVIGPDWMRRIKYFNYDDPQLLGMYYAMKDAPVFKSAEYDPAIQRCWVGYFGPDSIDDVRNAQSQVMAGIMPTQTMGGWFNPTLADPSQAPAGHHVVSTWITVPPSPRKWGNKTLNGWSSWREGFGEALADTMDDLYEKMAPGFKDLIIERHINTPMDQENSNPSAVRGNMIGGSAIPEQAGENRPLPGVCVNGASRTFIPGLYLSNSIHPFGATHLASGYIAAVELAEDLGCRNQSWWISQPFEWFMGNLGNIPLNAGVADKWKV chain 2: MSNETKFDAIVIGGGPNGLLAGAYLAKTGHKVVLFERRHETGGGLNTDEYFGFRFNLHAIYHLMAEKMPAWKDLDLANFGVRYLYPHVVAAFPFKDGSSLIFTRDVKETAESIAQFSKEDAAAYLAMWDEFQPMLDDYLIPMTYELPKPALDQLAEFGETEVGAKLAEISELSCLEVIDHYGFTHPRVRMALLSFPAMWGIHLADPLGFLYPLYLGRMLDAAFVKGGSHRLSSGMYRVFVKNGGTVIDENEVTRILVEDNRVTGVELQDGRRFMADAVVSTLNPVQTFKQLLPKDDVPYALHQAVDNWRWEERSFFGLHLGIDGGVRYNAQDPRVNEAMTVFIGLETEDELLDHLDRVDGKTTNGPEWLHIAQPTTFDKTMAPPNHSVIRAEAVVAYDPEWRARTPAFAAGCLDLIKQYATVDKVVQQRTVSPIDIEEKLTTMHRGSYKHGAYSTLQLGYLRPNDLCSCSETPIDGLFLGGASMYPGGMILGGPGYLAAQVTNDYLGEPVKK", "values": [
      {"measurement": "Km", "setting": "[2]", "result": "51.5 ± 8.2", "unit": "µM"}
    ]}
  ]
}
